For assay [1], the target named is T1, human dopamine D2S receptor (Homo sapiens, UniProt P14416).
T1 construct: expressed in transfected cells; host or cells: CHO cells, transfected, cell membrane homogenates
Briefly: Radioligand competition binding assay in cloned human dopamine D2S receptor. To be noted: test concentration 100 nM, 0.3 nM [3H]spiperone, transfected CHO cell membranes; read-out: percent inhibition of the control radioligand specific binding. Here is the method: In this assay, the binding affinity of test compounds for the human dopamine D2S receptor in transfected CHO cells is determined using a radioligand binding assay (Grady et al., Proc. Natl. Acad. Sci. USA 86:9762 (1989). Cell membrane homogenates (5-10 μg protein) were incubated for 60 minutes at 22° C. with 0.3 nM [^3H]spiperone in the absence or presence of a test compound in a buffer containing 50 mM Tris-HCl (pH 7.4), 120 mM NaCl, 5 mM KCl, 5 mM MgCl2 and 1 mM EDTA. The test compound was used at a test concentration of 100 nM. Nonspecific binding was determined in the presence of 10 μM (+)-butaclamol. Following incubation, the samples were filtered rapidly under vacuum through glass fiber filters (GF/B, Packard) presoaked with 0.3% polyethyleneimine and rinsed several times with ice-cold 50 mM Tris-HCl using a 96-sample cell harvester (Unifilter, Packard). The filters were dried, and then counted for radioactivity in a scintillation counter (Topcount, Packard) using a scintillation cocktail (Microscint 0, Packard). The results were expressed as a percent inhibition of the control radioligand specific binding.
(In general: Displacement assays read how much labelled ligand stays bound in the presence of the test substance.)

The target in another assay is T2, hM2 receptor (Homo sapiens, UniProt P08172).
T2 construct: expressed in transfected cells
T2 sequence (P08172 1-466): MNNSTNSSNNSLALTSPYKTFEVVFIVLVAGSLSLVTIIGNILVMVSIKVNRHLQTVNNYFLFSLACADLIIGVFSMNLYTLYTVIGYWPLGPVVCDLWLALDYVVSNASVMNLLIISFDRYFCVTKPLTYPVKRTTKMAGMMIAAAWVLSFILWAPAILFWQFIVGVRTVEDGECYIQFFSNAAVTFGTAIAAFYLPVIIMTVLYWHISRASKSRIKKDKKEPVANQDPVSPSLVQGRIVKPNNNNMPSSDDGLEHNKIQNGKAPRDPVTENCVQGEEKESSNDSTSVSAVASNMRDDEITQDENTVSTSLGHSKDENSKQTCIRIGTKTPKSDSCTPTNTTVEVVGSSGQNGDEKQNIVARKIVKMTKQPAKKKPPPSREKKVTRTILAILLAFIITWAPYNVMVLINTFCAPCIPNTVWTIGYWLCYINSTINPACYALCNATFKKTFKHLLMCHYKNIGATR
Kind of assay: Blockade of agonist-mediated [35S]GTPγS binding, CHO-K1 membranes expressing hM2. In kind it is biochemical. The following applies: CHO-K1 cells expressing the hM2 receptor; read-out: Ki value for blockade of oxotremorine-stimulated [35S]GTPγS-binding. As to the method:
In a second functional assay, the functional potency of test compounds is determined by measuring the ability of the compounds to block oxotremorine-stimulated [^35S]GTPγS binding in CHO-K1 cells expressing the hM2 receptor.
At the time of use, frozen membranes were thawed and then diluted in assay buffer with a final target tissue concentration of 5-10 μg protein per well. The membranes were briefly homogenized using a Polytron PT-2100 tissue disrupter and then added to the assay plates.
The EC90 value (effective concentration for 90% maximal response) for stimulation of [^35S]GTPγS binding by the agonist oxotremorine was determined in each experiment.
To determine the ability of a test compound to inhibit oxotremorine-stimulated [^35S]GTPγS binding, the following was added to each well of 96 well plates: 25 μL of assay buffer with [^35S]GTPγS (0.4 nM), 25 μL of oxotremorine (EC90) and GDP (3 uM), 25 μL of diluted test compound and 25 μL CHO cell membranes expressing the hM2 receptor. […] Microscint-20 scintillation liquid (50 μL) was added to each well, and each plate was sealed and radioactivity counted on a Topcounter (PerkinElmer). Data were analyzed by nonlinear regression analysis with the GraphPad Prism Software package (GraphPad Software, Inc., San Diego, Calif.) using the non-linear regression, one-site competition equation. […]
In general terms: GTPγS resists hydrolysis and so accumulates on activated G proteins.

Each structure is given as a SMILES string. pKi: −log10 of the molar value. Structures can show the parent of a compound that is named as a salt.

T1 sequence (P14416 1-414 isoform P14416-2): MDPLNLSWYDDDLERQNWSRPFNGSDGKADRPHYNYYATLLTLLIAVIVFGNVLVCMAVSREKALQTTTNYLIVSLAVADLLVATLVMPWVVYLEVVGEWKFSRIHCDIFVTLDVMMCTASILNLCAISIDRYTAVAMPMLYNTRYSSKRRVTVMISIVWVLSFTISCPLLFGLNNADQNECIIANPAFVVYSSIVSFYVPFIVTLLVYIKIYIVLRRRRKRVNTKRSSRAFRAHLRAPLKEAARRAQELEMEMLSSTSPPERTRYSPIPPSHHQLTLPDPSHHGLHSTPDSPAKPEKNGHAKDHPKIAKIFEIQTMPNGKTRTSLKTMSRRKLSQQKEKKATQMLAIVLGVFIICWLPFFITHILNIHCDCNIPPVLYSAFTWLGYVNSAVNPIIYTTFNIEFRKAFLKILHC

Regarding `O=C(CCN1CCC(OC(=O)Nc2ccccc2-c2ccccc2)CC1)Nc1ccc(CNCCc2ccc(O)c3[nH]c(=O)sc23)cc1` [Example 2, Biphenyl-2-ylcarbamic Acid 1-[2-(4-{[2-(4-Hydroxy-2-oxo-2,3-dihydrobenzothiazol-7-yl)ethylamino]methyl}phenylcarbamoyl)ethyl]-piperidin-4-yl Ester Bis(trifluoroacetate) Salt], the inhibition (usually the change of the read-out against control, counted positive when it falls) at 0.1 µM in assay [1] was over 30%.

Consider `O=C(Nc1ccccc1-c1ccccc1)OC1CCN(CCCCCCCCCNCCc2ccc(O)c3[nH]c(=O)sc23)CC1` [Example 1, Biphenyl-2-ylcarbamic Acid 1-{9-[2-(4-Hydroxy-2-oxo-2,3-dihydrobenzothiazol-7-yl)-ethylamino]nonyl}piperidin-4-yl Ester Bis(trifluoroacetate) Salt], for which the inhibition at 0.1 µM in assay [1] was over 75%. Also, the pKi (in general, −log10 of the Ki, conventionally taken in molar units) on hM2 receptor is over 8.00.

These data come from patent US7838535B2, “Compounds having β2 adrenergic receptor agonist and muscarinic receptor antagonist activity” (Theravance, Inc., priority 2003, dated 2010).
